Tested on: 883617-216-R-J1-PDC complex spheroid viability
Assay: Anticancer human tumor 883617-216-R-J1-PDC patient-derived bladder carcinoma cell line growth inhibition [POLQ]
Conditions: for IC50: curve of first compound; for viability, T/C: stronger effect = lower value
Method in brief: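 Three-cell-type spheroids modelling solid tumor plus stroma served as the readout system; POL inhibitors were tested individually and in combination, concentration ranges set by clinical Cmax where known.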

[1] = second compound 0.0316 µM, first compound 0.0316 µM
[2] = second compound 0.0316 µM, first compound 0.1 µM
[3] = second compound 0.0316 µM, first compound 0.316 µM
[4] = second compound 0.0316 µM, first compound 1 µM
[5] = second compound 0.0316 µM, first compound 3.16 µM
[6] = second compound 0.0316 µM, first compound 10 µM
[7] = second compound 0.1 µM, first compound 0.0316 µM
[8] = second compound 0.1 µM, first compound 0.1 µM
[9] = second compound 0.1 µM, first compound 0.316 µM
[10] = second compound 0.1 µM, first compound 1 µM
[11] = second compound 0.1 µM, first compound 3.16 µM
[12] = second compound 0.1 µM, first compound 10 µM
[13] = second compound 0.316 µM, first compound 0.0316 µM
[14] = second compound 0.316 µM, first compound 0.1 µM
[15] = second compound 0.316 µM, first compound 0.316 µM
[16] = second compound 0.316 µM, first compound 1 µM
[17] = second compound 0.316 µM, first compound 3.16 µM
[18] = second compound 0.316 µM, first compound 10 µM
[19] = second compound 1 µM, first compound 0.0316 µM
[20] = second compound 1 µM, first compound 0.1 µM
[21] = second compound 1 µM, first compound 0.316 µM
[22] = second compound 1 µM, first compound 1 µM
[23] = second compound 1 µM, first compound 3.16 µM
[24] = second compound 1 µM, first compound 10 µM
[25] = second compound 3.16 µM, first compound 0.0316 µM
[26] = second compound 3.16 µM, first compound 0.1 µM
[27] = second compound 3.16 µM, first compound 0.316 µM
[28] = second compound 3.16 µM, first compound 1 µM
[29] = second compound 3.16 µM, first compound 3.16 µM
[30] = second compound 3.16 µM, first compound 10 µM
[31] = second compound 10 µM, first compound 0.0316 µM
[32] = second compound 10 µM, first compound 0.1 µM
[33] = second compound 10 µM, first compound 0.316 µM
[34] = second compound 10 µM, first compound 1 µM
[35] = second compound 10 µM, first compound 3.16 µM
[36] = second compound 10 µM, first compound 10 µM
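Also: spheroids exposed to compounds for seven days before readout.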
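For viability, T/C in this document: 100% = DMSO vehicle control viability.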

C=CC(=O)N1CCN(c2nc(=O)n(-c3c(C)ccnc3C(C)C)c3nc(-c4c(O)cccc4F)c(F)cc23)C(C)C1 (stereo not given) + Nc1ccc(C#CCN(C(=O)Cc2ncc(C(F)(F)F)cc2C(F)(F)F)c2ccc(F)cc2)nn1
IC50 (second compound 0.0316 µM): > 10000 nM
IC50 (second compound 0.1 µM): > 10000 nM
IC50 (second compound 0.316 µM): > 10000 nM
IC50 (second compound 1 µM): > 10000 nM
IC50 (second compound 3.16 µM): > 10000 nM
IC50 (second compound 10 µM): > 10000 nM
viability, T/C [1]: 71.3%
viability, T/C [2]: 69.1%
viability, T/C [3]: 67.8%
viability, T/C [4]: 82.7%
viability, T/C [5]: 82.3%
viability, T/C [6]: 83.9%
viability, T/C [7]: 63.3%
viability, T/C [8]: 72.8%
viability, T/C [9]: 64.7%
viability, T/C [10]: 72%
viability, T/C [11]: 81.9%
viability, T/C [12]: 88.2%
viability, T/C [13]: 68.5%
viability, T/C [14]: 64.8%
viability, T/C [15]: 61.8%
viability, T/C [16]: 72.5%
viability, T/C [17]: 77.3%
viability, T/C [18]: 73.4%
viability, T/C [19]: 61.4%
viability, T/C [20]: 57.2%
viability, T/C [21]: 71.7%
viability, T/C [22]: 78.3%
viability, T/C [23]: 75.8%
viability, T/C [24]: 91.2%
viability, T/C [25]: 60.4%
viability, T/C [26]: 67.2%
viability, T/C [27]: 71.5%
viability, T/C [28]: 70.6%
viability, T/C [29]: 77.8%
viability, T/C [30]: 91%
viability, T/C [31]: 64.5%
viability, T/C [32]: 63.8%
viability, T/C [33]: 73.9%
viability, T/C [34]: 77.2%
viability, T/C [35]: 91.1%
viability, T/C [36]: 72.1%

O=C(Nc1ccc(O)c(NS(=O)(=O)c2ccc(F)cc2)c1)c1ccc(-c2ccccc2)cc1 + Cc1cccc(N(C)C(=O)C2C(O)CCN2c2nc(C)cc(C(F)(F)F)c2C#N)c1
IC50 (second compound 0.0316 µM): > 10000 nM
IC50 (second compound 0.1 µM): > 10000 nM
IC50 (second compound 0.316 µM): > 10000 nM
IC50 (second compound 1 µM): > 10000 nM
IC50 (second compound 3.16 µM): > 10000 nM
IC50 (second compound 10 µM): > 10000 nM
viability, T/C [1]: 96.5%
viability, T/C [2]: 90.4%
viability, T/C [3]: 86.6%
viability, T/C [4]: 91.7%
viability, T/C [5]: 81.9%
viability, T/C [6]: 65.5%
viability, T/C [7]: 98.6%
viability, T/C [8]: 98%
viability, T/C [9]: 96.5%
viability, T/C [10]: 80%
viability, T/C [11]: 79.3%
viability, T/C [12]: 66.3%
viability, T/C [13]: 97.6%
viability, T/C [14]: 103%
viability, T/C [15]: 95.3%
viability, T/C [16]: 93.1%
viability, T/C [17]: 83.3%
viability, T/C [18]: 68.2%
viability, T/C [19]: 97.9%
viability, T/C [20]: 99.7%
viability, T/C [21]: 99.1%
viability, T/C [22]: 82.9%
viability, T/C [23]: 88.3%
viability, T/C [24]: 71.1%
viability, T/C [25]: 94.6%
viability, T/C [26]: 103%
viability, T/C [27]: 85.3%
viability, T/C [28]: 105%
viability, T/C [29]: 80.8%
viability, T/C [30]: 75.4%
viability, T/C [31]: 105%
viability, T/C [32]: 102%
viability, T/C [33]: 94.2%
viability, T/C [34]: 91%
viability, T/C [35]: 81.5%
viability, T/C [36]: 57.1%

CNCc1ccc(-c2[nH]c3cc(F)cc4c3c2CCNC4=O)cc1 + Cc1cccc(N(C)C(=O)C2C(O)CCN2c2nc(C)cc(C(F)(F)F)c2C#N)c1
IC50 (second compound 0.0316 µM): > 10000 nM
IC50 (second compound 0.1 µM): > 10000 nM
IC50 (second compound 0.316 µM): > 10000 nM
IC50 (second compound 1 µM): > 10000 nM
IC50 (second compound 3.16 µM): > 10000 nM
IC50 (second compound 10 µM): > 10000 nM
viability, T/C [1]: 91.1%
viability, T/C [2]: 97.6%
viability, T/C [3]: 93%
viability, T/C [4]: 90.3%
viability, T/C [5]: 93.4%
viability, T/C [6]: 82.7%
viability, T/C [7]: 98.4%
viability, T/C [8]: 95.7%
viability, T/C [9]: 93.8%
viability, T/C [10]: 104%
viability, T/C [11]: 89%
viability, T/C [12]: 81.6%
viability, T/C [13]: 91.8%
viability, T/C [14]: 92%
viability, T/C [15]: 94.2%
viability, T/C [16]: 90.6%
viability, T/C [17]: 94.9%
viability, T/C [18]: 75.2%
viability, T/C [19]: 92.6%
viability, T/C [20]: 83.6%
viability, T/C [21]: 89.5%
viability, T/C [22]: 97.5%
viability, T/C [23]: 96.9%
viability, T/C [24]: 80.9%
viability, T/C [25]: 98.7%
viability, T/C [26]: 95.3%
viability, T/C [27]: 86.8%
viability, T/C [28]: 84.2%
viability, T/C [29]: 107%
viability, T/C [30]: 88.6%
viability, T/C [31]: 106%
viability, T/C [32]: 98.6%
viability, T/C [33]: 105%
viability, T/C [34]: 102%
viability, T/C [35]: 107%
viability, T/C [36]: 93.3%

COc1cccc2c1C(=O)c1c(O)c3c(c(O)c1C2=O)CC(O)(C(=O)CO)CC3OC1CC(N)C(O)C(C)O1 (stereo not given) + Nc1ccc(C#CCN(C(=O)Cc2ncc(C(F)(F)F)cc2C(F)(F)F)c2ccc(F)cc2)nn1
IC50 (second compound 0.0316 µM): 440 nM
IC50 (second compound 0.1 µM): 382 nM
IC50 (second compound 0.316 µM): 341 nM
IC50 (second compound 1 µM): 398 nM
IC50 (second compound 3.16 µM): 371 nM
IC50 (second compound 10 µM): 419 nM
viability, T/C [1]: 76.5%
viability, T/C [2]: 67.2%
viability, T/C [3]: 62.8%
viability, T/C [4]: 19.8%
viability, T/C [5]: 0.23%
viability, T/C [6]: 0.18%
viability, T/C [7]: 71.3%
viability, T/C [8]: 74.7%
viability, T/C [9]: 55.2%
viability, T/C [10]: 18.8%
viability, T/C [11]: 0.24%
viability, T/C [12]: 0.17%
viability, T/C [13]: 79.3%
viability, T/C [14]: 72.2%
viability, T/C [15]: 52.9%
viability, T/C [16]: 16.7%
viability, T/C [17]: 0.21%
viability, T/C [18]: 0.71%
viability, T/C [19]: 77.3%
viability, T/C [20]: 64.2%
viability, T/C [21]: 59.7%
viability, T/C [22]: 15.4%
viability, T/C [23]: 0.76%
viability, T/C [24]: 0.21%
viability, T/C [25]: 78.5%
viability, T/C [26]: 68.6%
viability, T/C [27]: 56.6%
viability, T/C [28]: 15.3%
viability, T/C [29]: 0.47%
viability, T/C [30]: 0.94%
viability, T/C [31]: 81.8%
viability, T/C [32]: 63%
viability, T/C [33]: 62.6%
viability, T/C [34]: 14.5%
viability, T/C [35]: 0.53%
viability, T/C [36]: 0.36%

COc1ccc([C@@H](O)c2cc(-c3ncnc4cc(N5CCOCC5)ccc34)c(F)cc2Cl)nn1 + Nc1ccc(C#CCN(C(=O)Cc2ncc(C(F)(F)F)cc2C(F)(F)F)c2ccc(F)cc2)nn1
IC50 (second compound 0.0316 µM): 2810 nM
IC50 (second compound 0.1 µM): 2800 nM
IC50 (second compound 0.316 µM): 2660 nM
IC50 (second compound 1 µM): 3410 nM
IC50 (second compound 3.16 µM): 2870 nM
IC50 (second compound 10 µM): 2500 nM
viability, T/C [1]: 104%
viability, T/C [2]: 92.5%
viability, T/C [3]: 90.1%
viability, T/C [4]: 66.7%
viability, T/C [5]: 48%
viability, T/C [6]: 36.6%
viability, T/C [7]: 75.6%
viability, T/C [8]: 97.9%
viability, T/C [9]: 84.6%
viability, T/C [10]: 63.2%
viability, T/C [11]: 51.9%
viability, T/C [12]: 33.1%
viability, T/C [13]: 108%
viability, T/C [14]: 99.7%
viability, T/C [15]: 84.3%
viability, T/C [16]: 62.8%
viability, T/C [17]: 49.8%
viability, T/C [18]: 31.4%
viability, T/C [19]: 94.8%
viability, T/C [20]: 89.3%
viability, T/C [21]: 77.9%
viability, T/C [22]: 68.2%
viability, T/C [23]: 50%
viability, T/C [24]: 35.9%
viability, T/C [25]: 96.3%
viability, T/C [26]: 102%
viability, T/C [27]: 90.8%
viability, T/C [28]: 68.3%
viability, T/C [29]: 50.6%
viability, T/C [30]: 37.1%
viability, T/C [31]: 108%
viability, T/C [32]: 103%
viability, T/C [33]: 101%
viability, T/C [34]: 75.5%
viability, T/C [35]: 43.6%
viability, T/C [36]: 32.6%

Reference: PubChem BioAssay AID1963833 (Molecular Pharmacology Branch, DTP, NCI, 2024)
